# Assay: Human HepG2 cell viability assay in 384 well format
# Assay type: toxicity, cell-based
# Parameters: dose 125 nL, time 70.5 hour; cytotoxicity at 70.5 h: concentration not given beside the values
# Conditions: HepG2 cells, read-out: Inhibition
row,SMILES,cytotoxicity at 70.5 h [%]
1,COc1ccc(NC(=O)N2CCCC(CO)C2)c(C)c1 (stereo not given),-6.09
2,CC(C)=CCn1ncc(N2CCOCC2)cc1=O,-1.75
3,CCc1c(C(=O)N2CCC3(CCCN(CCO)C3=O)C2)csc1C (stereo not given),6.16
4,CCN(Cc1nc(C)no1)C(=O)C1CC(=O)N(Cc2ccccn2)C1 (stereo not given),-13.9
5,CC(C)Cc1noc(CN(C)c2cc(C(C)C)nc3ccnn23)n1,5.41
6,Cc1cc(NCCS(C)(=O)=O)n2nc(C)cc2n1,4.45
7,O=C1O[C@@H]2CN(Cc3cccc(O)c3)C[C@@H]2N1CCCN1CCOCC1,-4.83
8,CSCC(C)NCc1ccc2[nH]c(C)c(C)c2c1 (stereo not given),1.07
9,NCCn1cc(C(=O)N2CCCCCC2c2ccco2)nn1 (stereo not given),-8.2
10,Cc1ccc(-c2cc(C(=O)NCCCc3csc(N)n3)[nH]n2)o1,1.47
11,CCCc1cnc(C)nc1N1CCC(Cc2cccc(C(N)=O)c2)C1 (stereo not given),-2.67
12,CS(=O)(=O)N1CCc2[nH]cnc2C12CCN(C1CCOCC1)CC2,-6.93
13,O=C1[C@H]2CC[C@H](CN(C3CCOCC3)C2)N1Cc1cscn1,23.4
14,CC(C)[C@@H]1CN(S(=O)(=O)Cc2ccccc2)C[C@H]1NS(=O)(=O)N(C)C,-2.27
15,FC(F)(F)c1ccc(-c2n[nH]c3c2CN(CC2CCOC2)CC3)cc1 (stereo not given),-15.3
16,C[C@@H]1CN(c2ccc(Cl)cn2)C[C@]1(C)O,3.11
17,Cn1ccnc1CN(CCO)C(=O)c1nc2ccccc2s1,2.62
18,CN(c1ncccc1CNS(=O)(=O)N1CCOCC1)C1CCCCC1,18.5
19,CCCc1noc(C2CC(=O)N(CCN(C)C)C2)n1 (stereo not given),-18.6
20,Cc1nc2c(c(NCCc3nc4c(s3)CCCC4)n1)CCNCC2,-9.11
21,CCc1cnc(NCC2OCCc3ccccc32)nc1 (stereo not given),3.74
22,CC(C)c1nnc2sc(CC3CCS(=O)(=O)CC3)nn12,-8.54

row,SMILES,cytotoxicity at 70.5 h [%]
1,Cc1ccc(CNC(=O)c2cc(CN3CCC(O)CC3)on2)s1,-18
2,COc1ccccc1CCN1CCCC(CN(C)Cc2c[nH]c(C)n2)C1 (stereo not given),14.9
3,O=C(NC1CC1)c1cccc(S(=O)(=O)NCCc2nc(C3CC3)no2)c1,-6.39
4,CC(C)c1nc(N2CC[C@@H](N(C)CCc3ccccn3)[C@H](O)C2)no1,13.3
5,COc1ccc(Cc2ncc3c(n2)CN(C(=O)CCO)C3)cc1,25.1
6,CCN1CC(C(=O)N2CCc3cc(C(=O)N(C)C)n(C)c3C2)CCC1=O (stereo not given),-6.7
7,Cc1cc(NC(C)c2nncn2C2CCCC2)n2nc(C)cc2n1 (stereo not given),-6.24
8,Cc1cccc(C2CCCN(C(=O)CN3C(=O)CCNC3=O)C2)c1 (stereo not given),-13.9
9,Cc1cc(CN2CCCn3nc(CCC(=O)O)cc3C2)ccc1F,2.51
10,NC(=O)c1csc(N2CCN(Cc3cccc4nsnc34)CC2)n1,15.7
11,O=C(Nc1ccc(F)c(F)c1)N1CCC2(CCC(=O)N(C3CC3)C2)CC1,-5.15
12,C=C(C)CNc1ccc(C(=O)N(CC)Cc2nccn2C)cn1,25.1
13,Cc1nn(CCO)cc1CN1CCC(N2CCC(O)CC2)CC1,1.99
14,CN(Cc1c[nH]nc1-c1ccc(F)cc1F)Cc1nccn1C,21.7
15,CC(C)S(=O)(=O)N1C[C@H]2OC(=O)N(CCc3cccc(Cl)c3)[C@H]2C1,-4.98
16,CCn1cc(-c2cc(C(=O)N3CCOCC3)c3cc(Cl)ccc3n2)cn1,-5.95
17,CC(C)Cc1cc(CNC(=O)c2cccc3c2OCC3)no1,-9.93
18,N[C@@H]1c2ccccc2C2(CCN(c3ncccc3C(F)(F)F)CC2)[C@H]1O,44.1
19,CCn1ccc(C(=O)N(C)Cc2cnn(-c3cccc(OC)c3)c2)n1,-11.2
20,c1ccc(OCCNc2ncnc3sc4c(c23)CCNC4)cc1,1.62
21,COc1ccccc1CN1C(=O)O[C@@H]2CN(c3nc(C)cc(C)n3)C[C@@H]21,-3.9
22,O=C(CNCC1(O)CCCN(Cc2cccc(F)c2F)C1=O)NC1CC1 (stereo not given),-1.7

row,SMILES,cytotoxicity at 70.5 h [%]
1,CCN(Cc1ccncc1)C(=O)c1cn(CC2CCCNC2)nn1 (stereo not given),-17.4
2,Cc1nn(C)c(C)c1CN(Cc1cccn1-c1ccccn1)C(C)C,9.47
3,C[C@@H]1CN(c2cc(N3CCC(O)CC3)ncn2)C[C@@]1(O)C1CC1,-0.962
4,Cn1cccc1C(=O)N1CCC2(CC1)c1nc[nH]c1CCN2S(C)(=O)=O,-3.6
5,Cc1cc(C)nc(NCCSc2cnn[nH]2)n1,-2
6,CC(C)N1CCN(CCn2cnc3c(F)cccc3c2=O)CC1,-2.82
7,Cn1c(-c2ccccc2Cl)nc2cc(C(=O)NCC3(C)COC3)cnc21,4.56
8,CCC(CC)NCC(c1ccccn1)N1CCOCC1 (stereo not given),2.77
9,O=C(NC1CC(=O)N(C2Cc3ccccc3C2)C1)c1cc[n+]([O-])cc1 (stereo not given),9.2
10,CSCc1noc(CN2CCCCC2CCc2ccc(O)cc2)n1 (stereo not given),-2.26
11,COc1cc(C)c(-c2ccc(F)c3c2OC(CN)C3)cc1C (stereo not given),-0.0935
12,CC(C)c1cc(C2CCN(C(=O)Cn3cnnn3)CC2)[nH]n1,-6.46
13,O=C(c1cccc(O)c1)N1C[C@@H](CN2CCCCC2)[C@@H](CO)C1,-4.01
14,OCC1(O)CCN(c2ncccc2C(F)(F)F)CC1,-0.128
15,Cc1cnc(-c2cccc(-c3ccn(CCCO)n3)c2)nc1N(C)C,-3.76
16,CNC(=O)c1nc(CN2CCOC(Cc3ccc(F)cc3)C2)no1 (stereo not given),-15.2
17,CC(C)(CN1CCCC1)CN1CCC(Cn2cc(C3CC3)nn2)CC1,-9.26
18,COC(C)(C)Cn1ccnc1-c1cccc(C(C)N(C)C)c1 (stereo not given),-7.08
19,CS(=O)(=O)N1CCc2[nH]nc(Cc3cccs3)c2C1,-2.7
20,CCOc1ccccc1CN(CC)Cc1ccc(S(=O)(=O)NC)cc1,-5.11
21,Cc1cc(C)nc(N2CC[C@@]3(O)CCN(S(=O)(=O)N(C)C)C[C@H]3C2)n1,16.5
22,COC[C@H](C)Nc1cc(C)c2ccc(SC)cc2n1,-8

row,SMILES,cytotoxicity at 70.5 h [%]
1,COc1cc(OC)c2nc(NCCN3CCNC3=O)cc(C)c2c1,2.59
2,COC(=O)N1CCC(c2nnc(Cn3ccnc3)n2C)CC1,-2.68
3,c1ccc(-c2n[nH]c(CCNc3nnc(C4CCC4)o3)n2)cc1,-7.22
4,CCN(Cc1ccncc1)C(=O)c1cn(CCC2CCCCC2)nn1,-16
5,CC(C)Cc1nc(CN2CC(=O)N(C)c3ccccc3C2=O)no1,2.18
6,CN(C)C(=O)CN1C[C@@H]2CC[C@H](C1)N(Cc1ccc3nsnc3c1)C2,3.82
7,COc1ccccc1CC(=O)N1C[C@H]2CC[C@@H]1CN(Cc1cscn1)C2,-12.1
8,O=C1CC2(CCN(Cc3ccc4cccc(O)c4n3)CC2)CN1,-5.81
9,CC(=O)c1ccc(C(=O)N2C[C@@H]3CC[C@H](C2)N(Cc2ccccc2)C3)s1,4.96
10,c1nc(CCNc2nc(C3CC3)nc3c2CCNCC3)c[nH]1,-10.1
11,CC(C)[C@@H]1CN(C(=O)CCc2ccc(F)cc2)C[C@H]1C(=O)O,28.6
12,CCN(C)CC(=O)N1CCc2nc(NC)nc(C(=O)N3CCCC3)c2C1,2.56
13,CC(C)CN1CC(c2nc(CCc3ccccc3)n[nH]2)CC1=O (stereo not given),-9.23
14,FC(F)(F)c1ccc(-c2noc3c2CN(CC2CCCO2)CC3)cc1 (stereo not given),-10.2
15,COc1nc2ccccc2cc1CN1CCCC(CNC(C)=O)C1 (stereo not given),-4.14
16,Cc1cc(=O)c(C(=O)N2CCCCC2c2ccc(F)cc2)c[nH]1 (stereo not given),-4.63
17,Cc1noc(C)c1C1CCCN1C(=O)CN1C(=O)OC(C)(C)C1=O (stereo not given),26.8
18,CC(=O)N(C/C=C/c1ccccc1)CCO,7.41
19,NCC1CCN(c2nc(C3CCCC3)nc3c2CCNCC3)C1 (stereo not given),21.5
20,COC1CCCN(Cc2cc(O)c3cc(C)cc(C)c3n2)C1 (stereo not given),-2.68
21,CN1CCCCC1CCC(=O)NCCSc1cnn[nH]1 (stereo not given),-2.59
22,CC(C)N1CCC(C(=O)N[C@H](C(=O)O)c2cccc(F)c2F)CC1,-1.13

row,SMILES,cytotoxicity at 70.5 h [%]
1,Nc1nc(CC(=O)N2CCCC(CCc3cccc(F)c3)C2)cc(=O)[nH]1 (stereo not given),-12.2
2,CC1(C)CNC(=O)c2nc(-c3ccccc3)[nH]c2C1,14.6
3,CCCc1nnc(NC2CCN(Cc3ccc(F)c(F)c3)CC2)o1,-6.56
4,CN(C)C(=O)c1cc2c(s1)CCN(C(=O)CCCN1CCCCC1)C2,-6.61
5,Cc1nc(-c2cc(Cl)c3c(c2)CC(CN)O3)c[nH]1 (stereo not given),0.0695
6,CC(=O)N1C[C@H](NS(=O)(=O)N2CCCC2)[C@@H](c2ccc(C)o2)C1,-7.2
7,CNS(=O)(=O)c1ccc(CN2CCCN(c3ccccc3)CC2)cc1,18
8,COc1ccc(C(C(=O)O)N2CCN(C3CCCC3)CC2)cc1C (stereo not given),-1.67
9,CNC(=O)c1cn2cc(-c3cccc(Cl)c3)n(CC=C(C)C)c(=O)c2n1,-5.75
10,CCN(Cc1cnn(CC)c1)C(=O)CN1C(=O)CCc2ccccc21,-4.74
11,CNc1cc(C)nc(-c2cc(NC)nc3[nH]ccc23)n1,-8.84
12,CSc1ccc(-c2nc(CN3CCC(NC(C)=O)CC3)c(C)o2)cc1,-7.12
13,CC(C)[C@@H]1CN(c2ncc(F)cn2)C[C@H]1NC(=O)N(C)C,-3.08
14,Cc1c(O)cccc1C(=O)N1CCCC2(C1)C(=O)N(C)c1ccccc12 (stereo not given),23
15,Cc1cc(C)n2nc(CC(=O)N[C@H]3C[C@H]4CN(C)CCN4C3)nc2n1,-7.89
16,CC(=O)c1ccc(CN2C[C@@H](CN3CCC(O)CC3)[C@@H](CO)C2)cc1,-2.46
17,Cc1cc(N(C)Cc2ccsc2)n2nc(C)c(C)c2n1,-10.9
18,Cc1cc(C)nc(CN(C)C(=O)C(c2cccnc2)N2CCCC2)c1 (stereo not given),-9.19
19,CCCC1(C(=O)O)CCCN(C(=O)c2cc(Cl)ccc2F)C1 (stereo not given),-13.1
20,O=c1[nH]ccn1CCCN1CC=C(c2cnn(-c3ccccc3)c2)CC1,-2.11
21,CCn1nc(C(C)C)cc1C(=O)N1CC(OCc2ccccc2F)C1,0.716
22,CC(C)CS(=O)(=O)CCNc1ncccn1,-4.65

# Source: ChEMBL document CHEMBL3507680, “University of Dundee, Gates Library screen for HepG2 cell viability”
